{"source": "patent US4220714A", "about": "“Composition for inhibiting adenylate-kinase and its use” (priority 1977, dated 1980)", "key": {"[1]": {"tested_on": "creatine kinase from serum", "experiment": "Creatine kinase (CK) activity from serum, coupled HK/G-6-PD reaction at 340 nm", "assay_type": "biochemical, human", "conditions": "FIG. 3", "description": "Each value represent the average of five independent readings.\nAll the CK activities were corrected by allowing for the AK activity.\nThe same samples were used both for AMP and the fluoride. The ordinates report the percentage relative to the inhibition of the creatine kinase and the abscissae indicate the concentrations of AMP, or fluoride, in millimols per liter, in FIG. 3."}, "adenylate kinase": {"tested_on": "adenylate kinase", "conditions": "erythrocyte AK; agent used alone (AMP without fluoride, fluoride without AMP); FIG. 1, 2", "protocol": "Normal and abnormal sera (from myocardial infarct) and the haemolysate from human erythrocytes were used as sources of CK and of AK.\nThe AK activity was determined according to the method by Szasz et al. (Clin. Chem., 22, 1806, (1976)). […] A spectrophotometer, Beckman-25 with basin-supporting cradle and thermostat, was used. The reaction temperature for determining both AK and CK was 37° C."}, "erythrocyte AK": {"target": "T1, erythrocyte AK (Homo sapiens, UniProt P00568)", "T1 construct": "the haemolysate from human erythrocytes; from tissue; host or cells: human erythrocytes (haemolysate)", "T1 sequence (P00568 1-194)": "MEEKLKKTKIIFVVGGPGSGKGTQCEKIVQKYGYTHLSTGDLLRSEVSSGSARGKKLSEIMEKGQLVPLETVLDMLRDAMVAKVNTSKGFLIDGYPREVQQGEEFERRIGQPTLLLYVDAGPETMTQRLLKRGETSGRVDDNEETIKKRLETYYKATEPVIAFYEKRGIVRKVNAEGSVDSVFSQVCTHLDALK", "experiment": "CK determination in normal sera without and with added erythrocyte AK", "assay_type": "biochemical", "conditions": "AMP only at 5 millimols per liter", "description": "Such samples have been analyzed with the method described herein and with that which uses AMP at 5 millimols per liter."}, "CK": {"tested_on": "CK", "conditions": "AMP at 5 to 10 times the ADP concentration; cited from earlier work"}}}
{"smiles": "Nc1ncnc2c1ncn2[C@@H]1O[C@H](COP(=O)(O)O)[C@@H](O)[C@H]1O", "note": "[AMP, adenosine-5'-monophosphate]", "values": [{"measurement": "inhibition of CK activity", "setting": "[1]; AMP at 20 millimols per liter", "value": "more than 10%"}, {"measurement": "concentration at which 95% of inhibition of AK is attained", "setting": "adenylate kinase", "value": "more than 20 millimols per liter"}, {"measurement": "excess of CK values of samples with erythrocyte AK over normal samples", "setting": "erythrocyte AK", "value": "about 50%"}, {"measurement": "difference in CK activity between normal samples and samples with added erythrocyte AK", "setting": "erythrocyte AK; P less than 0.01", "value": "most significant difference"}, {"measurement": "inhibition of the activity of the CK", "setting": "CK", "value": "slightly inhibits"}]}
{"smiles": "[F-].[K+]", "note": "[fluoride, potassium fluoride]", "values": [{"measurement": "inhibition of CK activity", "setting": "[1]; fluoride at 25 millimols per liter", "value": "≥ 4", "unit": "%"}, {"measurement": "concentration at which 95% of inhibition of AK is attained", "setting": "adenylate kinase", "value": 25, "unit": "millimols per liter"}]}
